# Laboratory results from article PMC7411887, “New Paracyclophanylthiazoles with Anti-Leukemia Activity: Design, Synthesis, Molecular Docking, and Mechanistic Studies” (Molecules, 2020).
# Where two headings read alike, the source gives them in different places.
# Assays:
# NCI-H23 = experiment: NCI five-dose assay; assay type: cell-based; settings: Non-Small-Cell Lung Cancer NCI-H23
# BT-549 = experiment: NCI five-dose assay; assay type: cell-based, human; settings: Breast Cancer BT-549
# HOP-62 = experiment: NCI five-dose assay; assay type: cell-based, human; settings: Non-Small-Cell Lung Cancer HOP-62
# SW-620 = experiment: NCI five-dose assay; assay type: cell-based, human; settings: Colon Cancer SW-620
# NCI-H522 = experiment: NCI five-dose assay; assay type: cell-based; settings: Non-Small-Cell Lung Cancer NCI-H522
# ACHN = experiment: NCI five-dose assay; assay type: cell-based; settings: Renal Cancer ACHN
# SK-MEL-28 = experiment: NCI five-dose assay; assay type: cell-based; settings: Melanoma SK-MEL-28
# OVCAR-5 = experiment: NCI five-dose assay; assay type: cell-based; settings: Ovarian Cancer OVCAR-5
# SR cancer cell line = experiment: Annexin V/PI flow cytometry; assay type: cell-based, human; settings: 24 h, at IC50, second value printed in the panel of Figure 11
# Experimental: Figure 11 Contour diagram of annexin V/PI flow cytometry against SR cancer cell line. […] The test was repeated three times. Following incubation for 24 h, cells were analyzed by flow cytometry after double staining with annexin V/PI.
# OVCAR-8 = experiment: NCI five-dose assay; assay type: cell-based; settings: Ovarian Cancer OVCAR-8
# SK-MEL-5 = experiment: NCI five-dose assay; assay type: cell-based; settings: Melanoma SK-MEL-5
# 786-0 = experiment: NCI five-dose assay; assay type: cell-based; settings: Renal Cancer 786-0
# HCT-15 = experiment: NCI five-dose assay; assay type: cell-based; settings: Colon Cancer HCT-15
# [1] = system: 60 human tumor cell lines; experiment: NCI five-dose assay, full panel; assay type: cell-based; settings: for GI50: Homo sapiens
# Experimental: The outcomes were used to form log concentration vs. percentage growth inhibition curves and three response parameters (GI50, total growth inhibition (TGI), and LC50) were calculated for each cell line (Table 2).
# The criterion for selectivity of a compound depends upon the ratio obtained by dividing the full-panel MID (the average sensitivity of all cell lines toward the test agent) (μM) by the individual subpanel MIDs (μM).
# CAKI-1 = experiment: NCI five-dose assay; assay type: cell-based; settings: Renal Cancer CAKI-1
# NCI/ADR-RES = experiment: NCI five-dose assay; assay type: cell-based; settings: Homo sapiens, Ovarian Cancer NCI/ADR-RES
# SF-539 = experiment: NCI five-dose assay; assay type: cell-based; settings: CNS Cancer SF-539
# MOLT-4 = experiment: NCI five-dose assay; assay type: cell-based; settings: Leukemia MOLT-4
# NCI-H322M = experiment: NCI five-dose assay; assay type: cell-based, human; settings: Non-Small-Cell Lung Cancer NCI-H322M
# MDA-MB-468 = experiment: NCI five-dose assay
# MDA-MB-435 = experiment: NCI five-dose assay; assay type: cell-based; settings: Homo sapiens, Melanoma MDA-MB-435
# NCI-H460 = experiment: NCI five-dose assay; assay type: cell-based; settings: Non-Small-Cell Lung Cancer NCI-H460
# DU-145 = experiment: NCI five-dose assay; assay type: cell-based; settings: Homo sapiens, Prostate Cancer DU-145
# MCF7 = experiment: NCI five-dose assay; assay type: cell-based, human; settings: Breast Cancer MCF7
# M14 = experiment: NCI five-dose assay; assay type: cell-based; settings: Homo sapiens, Melanoma M14
# CCRF-CEM = experiment: NCI five-dose assay; assay type: cell-based; settings: Homo sapiens, Leukemia CCRF-CEM
# OVCAR-3 = experiment: NCI five-dose assay
# U251 = experiment: NCI five-dose assay; assay type: cell-based; settings: CNS Cancer U251
# [2] = Homo sapiens, read-out: GI50 Concentration/Cell Line
# [3] = Homo sapiens, read-out: LC50 (the source's name)
# [4] = read-out: GI50 Concentration/Cell Line
structure (smiles),measurement,setting,value
COC(=O)C=C1SC(=NNC(=O)c2cc3ccc2CCc2ccc(cc2)CC3)N(c2ccccc2)C1=O [Compound 3a],"LC50 (NCI lethal concentration, 50% cell kill)",NCI-H23; Homo sapiens,8.85 µM
same,GI50,NCI-H23; [2],1.95 µM
same,TGI Concentration/Cell Line,NCI-H23,4.15 µM
same,TGI Concentration/Cell Line,BT-549,5.35 µM
same,GI50,BT-549; [2],2.22 µM
same,GI50,HOP-62; [2],2.68 µM
same,TGI Concentration/Cell Line,HOP-62,6.97 µM
same,TGI Concentration/Cell Line,SW-620,3.66 µM
same,LC50 (concentration killing 50% of cells),SW-620; Homo sapiens,7.23 µM
same,GI50,SW-620; [2],1.85 µM
same,LC50,NCI-H522; Homo sapiens,> 100 µM
same,GI50,NCI-H522; [2],4.89 µM
same,TGI Concentration/Cell Line,NCI-H522,>100 µM
same,GI50,ACHN; [2],1.78 µM
same,CC50,ACHN; [3],6.08 µM
same,TGI Concentration/Cell Line,ACHN,3.29 µM
same,LC50 (concentration causing 50% net cell kill),SK-MEL-28; Homo sapiens,> 100 µM
same,GI50,SK-MEL-28; [2],2.97 µM
same,TGI Concentration/Cell Line,SK-MEL-28,9.87 µM
same,LC50 (50% lethal concentration),OVCAR-5; Homo sapiens,7.68 µM
same,GI50,OVCAR-5; [2],1.92 µM
same,TGI Concentration/Cell Line,OVCAR-5,3.84 µM
same,percentage of cells in late apoptosis (upper right quadrant),SR cancer cell line,19%
same,GI50,OVCAR-8; [2],3.08 µM
same,CC50,OVCAR-8; [3],> 100 µM
same,TGI Concentration/Cell Line,OVCAR-8,>100 µM
same,LC50,SK-MEL-5; Homo sapiens,> 100 µM
same,GI50,SK-MEL-5; [2],7.56 µM
same,TGI Concentration/Cell Line,SK-MEL-5,>100 µM
same,GI50,786-0; [2],2 µM
same,CC50,786-0; [3],9.58 µM
same,TGI Concentration/Cell Line,786-0,4.38 µM
same,TGI Concentration/Cell Line,HCT-15,4.05 µM
same,LC50,HCT-15; Homo sapiens,8.76 µM
same,GI50,HCT-15; [2],1.87 µM
same,GI50,"[1]; full panel, read-out: MID^a (GI50, average sensitivity of all cell lines)",2.38 µM
same,GI50,"[1]; nine subpanels, read-out: GI50 range over tested cell lines",1.52 to 7.56 µM
same,"MID^c (TGI, average sensitivity of all cell lines)",[1]; full panel,21.1 µM
same,GI50,CAKI-1; [2],1.52 µM
same,CC50,CAKI-1; [3],9.78 µM
same,TGI Concentration/Cell Line,CAKI-1,3.00 µM
same,LC50,NCI/ADR-RES,> 100 µM
same,GI50,NCI/ADR-RES; [4],2.92 µM
same,TGI Concentration/Cell Line,SF-539,3.32 µM
same,GI50,SF-539; [2],1.79 µM
same,CC50,SF-539; [3],6.18 µM
same,LC50 (concentration killing 50% of cells),MOLT-4; Homo sapiens,> 100 µM
same,GI50,MOLT-4; [2],3.12 µM
same,TGI Concentration/Cell Line,MOLT-4,>100 µM
same,GI50,NCI-H322M; [2],2.02 µM
same,TGI Concentration/Cell Line,NCI-H322M,4.75 µM
same,TGI Concentration/Cell Line,MDA-MB-468; Breast Cancer MDA-MB-468,3.74 µM
same,GI50,"MDA-MB-468; Homo sapiens, MDA-MB-468, read-out: GI50 Concentration/Cell Line",1.84 µM
same,CC50,"MDA-MB-468; Homo sapiens, MDA-MB-468, read-out: LC50",7.61 µM
same,LC50 (concentration causing 50% net cell kill),MDA-MB-435,> 100 µM
same,GI50,MDA-MB-435; [4],5.44 µM
same,LC50 (50% lethal concentration),NCI-H460; Homo sapiens,8.82 µM
same,GI50,NCI-H460; [2],2.08 µM
same,TGI Concentration/Cell Line,NCI-H460,4.29 µM
same,LC50,DU-145,> 100 µM
same,GI50,DU-145; [4],5.11 µM
same,TGI Concentration/Cell Line,MCF7,4.95 µM
same,GI50,MCF7; [2],1.87 µM
same,LC50,M14,> 100 µM
same,GI50,M14; [4],3.27 µM
same,LC50,CCRF-CEM,> 100 µM
same,GI50,CCRF-CEM; [4],2.71 µM
same,GI50,"OVCAR-3; Homo sapiens, OVCAR-3, read-out: GI50 Concentration/Cell Line",1.8 µM
same,CC50,"OVCAR-3; Homo sapiens, OVCAR-3, read-out: LC50",7.23 µM
same,TGI Concentration/Cell Line,OVCAR-3; Ovarian Cancer OVCAR-3,3.61 µM
same,TGI Concentration/Cell Line,U251,4.00 µM
same,GI50,"U251; Homo sapiens, U-251, read-out: GI50 Concentration/Cell Line",1.89 µM
same,CC50,"U251; Homo sapiens, U-251, read-out: LC50 (the source's name)",8.47 µM
